# According to ChEMBL document CHEMBL1135885, “Designing small, nonsugar activators of antithrombin using hydropathic interaction analyses” (J Med Chem, 2002):
# How the values were obtained:
# [1] = The second order rate constant for uncatalysed inhibition of factor Xa by antithrombin was determined for the compound at […]
# [2] = The equilibrium dissociation constant was measured experimentally for the compounds interaction with antithrombin.; assay type: ADME
# [3] = Equilibrium constants and K activator was determined.; assay type: ADME
# [4] = The equilibrium dissociation constant antithrombin interaction was determined at pH 7.4; assay type: ADME
# [5] = delta f max at pH 7.4; assay type: ADME
# [6] = delta f max at pH 6.0; assay type: ADME
# [7] = Catalysed acceleration of antithrombin inhibition of factor Xa (K-uncat = 120 +/- 10 M-1.s-1)
Kuncat [1],Kd [2],Kd [1],K act [3],Kd [4],Delta Fmax [5],Delta Fmax [6],Fold_increase [7],Compound
120 M⁻¹ s⁻¹,10.5 µM,–,–,–,–,–,–,O=S(=O)(O)Oc1cc2c(c(OS(=O)(=O)O)c1)C[C@@H](OS(=O)(=O)O)[C@@H](c1ccc(OS(=O)(=O)O)c(OS(=O)(=O)O)c1)O2
–,–,2 µM,45000 M⁻¹ s⁻¹,66 µM,34%,34%,320,CO[C@H]1O[C@H](COS(=O)(=O)O)[C@@H](OC2O[C@H](C(=O)O)[C@@H](OC3O[C@H](COS(=O)(=O)O)[C@@H](O)[C@H](O)[C@H]3NS(=O)(=O)O)[C@H](O)[C@H]2O)[C@H](OS(=O)(=O)O)[C@H]1NS(=O)(=O)O (stereo partly drawn) [HEPARIN TRISACCHARIDE DEF]
